Experimental data: US20180332879A1, “AGENT FOR IMPROVING AFTERTASTE HAVING HIGH INTENSITY SWEETENERS” (NAGAOKA CO., LTD., priority 2017, published 2018)
Residues, ends and D or L forms follow the SMILES beside them.

Tests used:
[1] = Sensory evaluation by seven panelists: improvement of the quality of sweetness and impure taste of a high-intensity sweetener solution after adding the improving agent; details: summary of Table 2
Experimental: The resultant solution 1 (an aspartame solution) in Preparation Example 3 was added the resultant solution in Preparation Example 1 in an amount of 0.033% by mass. The concentration of isobutyl angelate added to the solution 1 was 0.0099 ppm by mass. The taste of the solution 1 having isobutyl angelate added thereto was evaluated by the following method.
The solution 1 (without addition of isobutyl angelate) was tasted by seven panelists (one twenty-something male, one thirty-something male, one forty-something male, one fifty-something male, one sixty-something male, and one twenty-something female and one thirty-something female). Subsequently, the seven panelists rinsed their mouths sufficiently, and then the solution 1 containing isobutyl angelate (with addition of isobutyl angelate) was tasted by the seven panelists. The panelists compared the isobutyl-angelate-free solution with the isobutyl-angelate-added solution, and then determined whether or not the quality of sweetness and the impure taste of the isobutyl-angelate-added solution were improved compared with the isobutyl-angelate-free solution in accordance with the following criteria. When the sum total of the scores determined by the seven panelists was 10 points or greater, it was determined that the quality of sweetness and the impure taste were improved. […]

[2] = Sweetness degree and taste characteristics of sweetener solutions equivalent to 8% by mass aqueous sugar solution; details: intensity of sweetness, sweetness degree of sugar defined as 1
Experimental: Solutions, each having a sweetness degree corresponding to an 8% by mass aqueous sugar solution, were prepared using the various high-intensity sweeteners shown in Table 1. In Table 1, each of the sweetness degrees represents the intensity of sweetness wherein the sweetness degree of sugar is defined as 1, and each of the concentrations represents the concentration of a high-intensity sweetener in the solution.

| SMILES | Unpleasant aftertaste and impure taste (harsh, astringent) of a high-intensity sweetener in a solution [1] | Sweetness degree [2] [times] |
| --- | --- | --- |
| C/C=C(/C)C(=O)OCC(C)C [isobutyl angelate, Isobutyl angelate] | can be improved | – |
| COC(=O)[C@H](Cc1ccccc1)NC(=O)[C@@H](N)CC(=O)O [Aspartame] (H-Asp-Phe-OMe) | – | 200 |
| OC[C@H]1O[C@H](O[C@]2(CCl)O[C@H](CCl)[C@@H](O)[C@@H]2O)[C@H](O)[C@@H](O)[C@H]1Cl [Sucralose] | – | 600 |
| CC1=CC(=O)NS(=O)(=O)O1 [Acesulfame potassium] | – | 200 |
